Tests used:
C1q = target: T1, C1q (Homo sapiens, UniProt P02745+P02746+P02747); assay: FITC C1q binding to reagent-coated Ramos B cells in normal human serum; conditions: normal human serum 1.25-10%, FIG. 3A
T1 construct: normal human serum (NHS, #A113, Quidel Corp., San Diego, Calif.); tissue Quidel Corp. A113; host or cells: normal human serum (purchased), added to reagent-coated Ramos B cells
Description: C1q binding studies were performed as previously described (Cragg et al., Blood 2004, 103:2738-2743). Briefly, Ramos B-cells in Iscoves media (#12440-053, Gibco/Invitrogen, Grand island, NY) with no serum were plated in 96-well V bottom plates at 5×10^5/well in 100 μl. Cells were incubated with reagents for 15 minutes at 37° C., and normal human serum (NHS, #A113, Quidel Corp., San Diego, Calif.) diluted in Iscoves was then added at a volume of 50 μl to each well for a final concentration of 10, 5, 2.5, or 1.25% human serum. Fifty μl of media was added to the control well. For cobra venom factor (CVF) experiments, CVF was added to human serum complement samples at 20 Units CVF/mL of serum for 90 minutes at 37° C. prior to addition of serum to complement assays, and the dilution of serum by CVF accounted for when making sample dilutions.
The cells plus complement source were incubated for an additional 5 minutes at 37° C., and washed 2 times with cold PBS (#14040-133, Gibco/Invitrogen, Grand Island, N.Y.) via centrifugation and resuspended in 100 μl of PBS. Fifty μl from each well was transferred to a second plate for second step control staining. […] Samples were washed, resuspended in cold PBS, and read immediately on a FACsCalibur flow cytometer and analyzed with Cell Quest software (Becton Dickinson, San Jose, Calif.).

CD37 = target: T2, CD37 (Homo sapiens, UniProt P11049); assay: binding of TRU-016 SEC fractions to Ramos cells, flow cytometry; set-up: Ramos cells expressing the CD20 and CD37 target antigens; endogenous in cells; host or cells: Ramos B-cell lymphoma line; conditions: FITC goat anti-human IgG, FIG. 5A
T2 sequence (P11049 1-281): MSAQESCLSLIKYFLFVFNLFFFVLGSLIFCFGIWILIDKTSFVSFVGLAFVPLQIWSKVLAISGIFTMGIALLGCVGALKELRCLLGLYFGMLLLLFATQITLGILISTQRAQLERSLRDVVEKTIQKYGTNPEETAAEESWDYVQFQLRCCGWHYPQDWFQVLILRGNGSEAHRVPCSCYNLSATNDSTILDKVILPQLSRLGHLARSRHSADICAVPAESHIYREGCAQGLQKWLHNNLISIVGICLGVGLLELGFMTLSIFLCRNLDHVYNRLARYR
Description: To determine the binding properties of SEC fractions, cells were suspended in staining media at a concentration of approximately 4×10^6 cells/mL and then plated at 50 μl/well (2×10^5 cells/well) in staining media. Serial dilutions of SEC fractions were then added to sequential wells, incubated for 45 minutes, washed, and binding activity was detected using FITC goat anti-human IgG. Samples were fixed in 200 μl 1% paraformaldehyde in PBS. Cells were analyzed by flow cytometry on a FACsCalibur instrument using Cell Quest software (BD Biosciences, San Jose, Calif.) (FIG. 5A).

Ramos B cells [1] = assay: CDC assay, Ramos B cells with human serum complement, propidium iodide; assay type: cell-based; conditions: for CDC activity with human complement, single reagent: Ramos B cells, human serum
Description: (§1) The cells were incubated 60 minutes at 37° C. […] Samples were incubated 15 minutes at room temperature in the dark prior to analysis by flow cytometry using a FACsCalibur and CellQuest software (Becton Dickinson).
as §1

BJAB B cells = assay: ADCC 51Cr release assay, BJAB targets, human PBMC effectors; assay type: cell-based; conditions: 10 ng/mL to 20 μg/mL, effector:target 25:1, 6 hours, FIG. 5C
Description: To determine the ADCC activity of SEC fractions, BJAB, Ramos, and Daudi lymphoblastoid B cells (10^7) cells were labeled with 500 μCi/mL ^51Cr sodium chromate for 2 hours at 37° C. in IMDM/10% FBS. PBMCs were isolated from heparinized, human whole blood by fractionation over Lymphocyte Separation Media (LSM, ICN Biomedical) gradients. Reagent samples were added to RPMI media with 10% FBS and five serial dilutions for each reagent were prepared. For combinations, the reagents were premixed and diluted prior to addition to the wells. The ^51Cr labeled BJAB were added at (2×10^4 cells/well). The PBMCs were then added at (5×10^5 cells/well) for a final ratio of 25:1 effectors (PBMC):targets (BJAB). […] CPM released was measured on a Packard TopCounNXT from 50 μl dried culture supernatant. Percent specific killing was calculated by subtracting (cpm [mean of quadruplicate samples] of sample—cpm spontaneous release)/(cpm maximal release-cpm spontaneous release)×100 (FIG. 5C).
BJAB, Ramos, and Daudi lymphoblastoid B cells (10E7) cells were labeled with 500 μCi/mL ^51Cr sodium chromate for 2 hours at 37° C. in IMDM/10% FBS. […] Cells were counted by trypan blue exclusion using a hemacytometer prior to use in subsequent assays. […]
Effectors and targets were added to media alone to measure background killing. […] CPM released was measured on a Packard TopCounNXT. […]

Ramos cells = assay: ADCC assay, labeled Ramos targets, human PBMC effectors; assay type: cell-based; conditions: effector to target ratio 25:1, FIG. 18D
Description: To determine the ADCC activity of SEC fractions, BJAB, Ramos, and Daudi lymphoblastoid B cells (10^7) cells were labeled with 500 μCi/mL ^51Cr sodium chromate for 2 hours at 37° C. in IMDM/10% FBS. PBMCs were isolated from heparinized, human whole blood by fractionation over Lymphocyte Separation Media (LSM, ICN Biomedical) gradients. Reagent samples were added to RPMI media with 10% FBS and five serial dilutions for each reagent were prepared. For combinations, the reagents were premixed and diluted prior to addition to the wells. The ^51Cr labeled BJAB were added at (2×10^4 cells/well). The PBMCs were then added at (5×10^5 cells/well) for a final ratio of 25:1 effectors (PBMC):targets (BJAB). Reactions were set up in quadruplicate wells of a 96 well plate. TRU-016 SEC fractions were added to wells at a final concentration ranging from 10 ng/mL to 20 μg/mL as indicated on the graphs. Each data series plots a different SEC fraction at the titration ranges described. Reactions were allowed to proceed for 6 hours at 37° C. in 5% CO2 prior to harvesting and counting. CPM released was measured on a Packard TopCounNXT from 50 μl dried culture supernatant. Percent specific killing was calculated by subtracting (cpm [mean of quadruplicate samples] of sample—cpm spontaneous release)/(cpm maximal release-cpm spontaneous release)×100 (FIG. 5C).

Ramos B cells [2] = assay: CDC assay, Ramos B cells with rabbit complement; assay type: cell-based, human; conditions: 10 μg/ml reagent, rabbit complement 10, 5 or 2.5%, FIG. 3C
Description: Human and rabbit complement were then compared for their CDC activity in the presence of the TRU-016. The CDC activity of TRU-016 molecular forms incubated with Ramos B cells and human or rabbit complement was measured (FIG. 3C). Ramos B cells were added to wells in serum free media. […] Cells plus complement source were incubated 90 minutes at 37° C. Cells were washed once with cold PBS and propidium iodide (Molecular Probes #P3566) added to a final concentration of 0.5 μg/mL in cold PBS. Cells with PI were incubated in the dark at RT for 15 minutes and analyzed by flow cytometry.

Daudi cells = assay: Annexin V/PI apoptosis analysis, Daudi; assay type: cell-based, human
Description: Further experiments examining the effect of TRU-016 on B cell line apoptosis were performed using the more highly purified dimer form of TRU-016 (FIG. 19B). Samples were analyzed at both 24 and 48 hours after initiation of incubation reactions. Annexin/PI analysis was performed on several cell types using 20 μg/mL TRU-016 protein. Because apoptosis was reduced using the dimer form of TRU-016, 20 μg/mL goat anti-human IgG was added to reactions in order to cross link reagents on the cell surface. Cells were then stained with Annexin V-FITC and propidium iodide.

T1 sequence (P02745 23-245): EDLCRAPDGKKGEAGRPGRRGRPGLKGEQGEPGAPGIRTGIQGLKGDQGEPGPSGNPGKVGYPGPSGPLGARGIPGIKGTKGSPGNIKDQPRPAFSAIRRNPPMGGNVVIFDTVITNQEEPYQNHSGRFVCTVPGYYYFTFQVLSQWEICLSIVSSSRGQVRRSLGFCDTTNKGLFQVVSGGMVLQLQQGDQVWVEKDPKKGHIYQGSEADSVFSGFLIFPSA
T1 sequence (P02746 28-253): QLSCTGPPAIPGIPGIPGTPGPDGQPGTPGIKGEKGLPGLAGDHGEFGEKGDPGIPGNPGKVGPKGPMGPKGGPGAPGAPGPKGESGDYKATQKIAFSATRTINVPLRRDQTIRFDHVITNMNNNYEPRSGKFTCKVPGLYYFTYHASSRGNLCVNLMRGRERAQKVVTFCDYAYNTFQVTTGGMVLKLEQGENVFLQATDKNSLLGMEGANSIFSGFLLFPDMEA
T1 sequence (P02747 29-245): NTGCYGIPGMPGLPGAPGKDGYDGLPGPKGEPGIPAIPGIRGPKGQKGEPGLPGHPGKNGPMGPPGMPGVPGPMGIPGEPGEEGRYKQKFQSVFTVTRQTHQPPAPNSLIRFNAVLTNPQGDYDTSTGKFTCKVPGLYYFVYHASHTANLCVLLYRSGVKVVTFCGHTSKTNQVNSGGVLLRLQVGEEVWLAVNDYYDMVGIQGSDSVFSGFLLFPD

| Substance | FITC C1q binding (C1q) | binding to Ramos cells (titration curves) (CD37) | CDC activity with human complement, single reagent (Ramos B cells [1]) | CDC cell killing in the presence of CVF (Ramos B cells [1]; human serum complement with cobra venom factor, FIG. 3B) | ADCC, % specific killing (BJAB B cells) | ADCC against Ramos cells (Ramos cells) | CDC activity with human complement, single reagent (Ramos B cells [1]; listed as dimer form of the TRU-016) | CDC activity with human complement, single reagent (Ramos B cells [1]; listed as dimer peak) | CDC activity with rabbit complement (Ramos B cells [2]) | apoptosis of Daudi cells with crosslinking agent (Daudi cells; 20 μg/mL plus 20 μg/mL goat anti-human IgG) | apoptosis of Daudi cells (Daudi cells; 20 μg/mL, 24-48 hours, FIG. 19B) |
| --- | --- | --- | --- | --- | --- | --- | --- | --- | --- | --- | --- |
| HMW multimer fraction: higher molecular weight multimers of TRU-016 separated by SEC | more binding than the other forms | better binding | significant levels of CDC activity | significantly reduced in the presence of CVF | potent, dose-dependent ADCC |  |  |  |  |  |  |
| TRU-016 dimer peak: dimer form of TRU-016 isolated by GPC and HPLC fractionation from higher molecular weight multimers |  |  | poor mediator of CDC |  | potent, dose-dependent ADCC | significant levels of ADCC | very low CDC activity | very little or no CDC activity | good CDC | significant increase in the level of CD37 targeted apoptosis | induces apoptosis of Daudi cells |
